Patent US20230410294A1, “METHOD FOR GRADING THE NUCLEAR MORPHOLOGY OF A TUMOR” (Nanyang Technological University, priority 2020, published 2023)
Entries after “also recorded” stand apart in the source; their conditions may differ.

Tests used:
Assay type in all cases: cell-based
[1] = tested on: SK-N-SH cells; assay: Lamin A level by immunostaining after anti-cancer drug treatment; details: SK-N-SH cells remaining attached after 24 h; DOX 1 μM, Etop 10 μM; vs DMSO; FIG. 19a-b
Protocol: Nanopillar arrays were cleaned and sterilized by air plasma and UV exposure before cell culture. The nanochip was then coated with fibronectin ([…], Sigma-Aldrich) for 30 minutes under 37° C. The SK-N-SH cells were seeded on the nanostructures after coating and grown in Eagle's Minimum Essential Medium (MEM) supplemented with 2 mM L-glutamine (Gibco), 1% MEM Non-Essential Amino Acids (NEAA) (Gibco), 10% fetal bovine serum (FBS) (Life Technologies) and 100 U ml^−1 penicillin and […] streptomycin (Life Technologies) in a standard incubator at 37° C. with 5% CO2. Drug treatment was done after overnight incubation, the SK-N-SH cells on nanostructures are treated with Etoposide (ETOP) (Sigma), Doxorubicin (DOX) (Sigma) or Dimethyl sulfoxide (DMSO) (Sigma). […]
(§1) Fluorescence imaging and live cell imaging were done by confocal microscopy (Zeiss LSM 800 with Airyscan or a spinning disc confocal microscope (SDC) that is built around a Nikon Ti2 inverted microscope equipped with a Yokogawa CSU-W1 confocal spinning head). […] The live cell imaging and subsequent fluorescence imaging were done by SDC and the image acquisition and processing was controlled by MetaMorph (Molecular Device) software.

[2] = tested on: SK-N-SH cells; assay: Nanopillar-guided subnuclear anisotropicity after anti-cancer drug treatment; details: SK-N-SH on nanopillar arrays, 24 h, DOX 1 μM, Etop 10 μM; for fraction of cells with dominant isotropic ring features and low deformation coherency: DMSO control 0.262±0.160, FIG. 19e; for pillar coherency: DMSO control 0.3853±0.1448, FIG. 19d
Protocol: Nanopillar arrays were cleaned and sterilized by air plasma and UV exposure before cell culture. The nanochip was then coated with fibronectin ([…], Sigma-Aldrich) for 30 minutes under 37° C. The SK-N-SH cells were seeded on the nanostructures after coating and grown in Eagle's Minimum Essential Medium (MEM) supplemented with 2 mM L-glutamine (Gibco), 1% MEM Non-Essential Amino Acids (NEAA) (Gibco), 10% fetal bovine serum (FBS) (Life Technologies) and 100 U ml^−1 penicillin and […] streptomycin (Life Technologies) in a standard incubator at 37° C. with 5% CO2. Drug treatment was done after overnight incubation, the SK-N-SH cells on nanostructures are treated with Etoposide (ETOP) (Sigma), Doxorubicin (DOX) (Sigma) or Dimethyl sulfoxide (DMSO) (Sigma). After 24-hour incubation, the treated cells and untreated cells were fixed with 4% Paraformaldehyde (PFA) Solution in PBS (Boster biological technology AR1068) for 15 minutes for subsequent immunostaining.
The nuclear morphology in SK-N-SH cells were visualized by immunostaining lamin A and lamin B1. The lamin A and vimentin level in cells were characterized by immunostaining lamin A and vimentin. Cells were cultured on nanopillars and incubated overnight before fixation with pre-warmed 4% Paraformaldehyde (PFA) in PBS (Boster biological technology AR1068) for 15 minutes at room temperature. After washing with PBS for three times, the cells were permeabilized in 0.5% Triton X-100 (Sigma) in PBS for 15 minutes, followed by blocking with 5% bovine serum albumin (BSA) (Sigma) in PBS for 1 hour. Subsequently, samples were incubated with primary antibodies (anti-lamin A, Abcam, ab26300; anti-lamin B1, Abcam, ab16048; anti-vimentin, Sigma, V5255.) at 1:400 dilution at room temperature for 1 hour or 4° C. overnight. […]
as §1
The guided subnuclear irregularities were characterized by measurement of their anisotropicity. […] After thresholding the cropped images of lamin A channel using the masks, the coherency, an indicator for anisotropy property, of the nanopillar-guided nuclear features was measured using orientationJ (a plugin function in ImageJ).

[3] = tested on: MCF-7 cells; assay: Nanopillar-guided subnuclear deformation anisotropy (coherency) after drug treatment; details: MCF-7 on nanopillar arrays, treated vs DMSO; FIG. 9c-d
Protocol: Prior to cell culture, the nanostructured chips were cleaned by air plasma for 10 min and exposed to UV for 15 min Subsequently, the nanostructured substrates were coated with fibronectin (2 ug/ml, Sigma-Aldrich) for 30 minutes at 37° C. After coating, cell culture was performed on the substrates. All the cell lines used in this work were maintained in the Dulbecco's Modified Eagle Medium (DMEM) (Gibco) supplemented with 10% fetal bovine serum (FBS) (Life Technologies) and 1% Penicillin-Streptomycin (Life Technologies) in a standard incubator at 37° C. with 5% CO2. […]
Imaging of the fluorescently labeled cells on nanopillar arrays was performed using laser scanning confocal microscopy (Zeiss LSM 800 with Airyscan). […] Live cell imaging and the subsequent fluorescence imaging was performed using a spinning disc confocal microscope (SDC) that is built around a Nikon Tit inverted microscope equipped with a Yokogawa CSU-W1 confocal spinning head, a Plan-Apo objective (100×1.45-NA), a back-illuminated sCMOS camera (Orca-Fusion; Hamamatsu). […]
Anisotropicity of nanopillar-guided subnuclear shape irregularities was measured on nanopillar arrays. […] Then, the anisotropicity of the subnuclear shape irregularities was measured as coherency, an indicator for anisotropy property, using orientationJ (a plugin function in ImageJ).

[4] = tested on: MDA-MB-231 cells; assay: as above
Protocol: Prior to cell culture, the nanostructured chips were cleaned by air plasma for 10 min and exposed to UV for 15 min Subsequently, the nanostructured substrates were coated with fibronectin (2 ug/ml, Sigma-Aldrich) for 30 minutes at 37° C. After coating, cell culture was performed on the substrates. All the cell lines used in this work were maintained in the Dulbecco's Modified Eagle Medium (DMEM) (Gibco) supplemented with 10% fetal bovine serum (FBS) (Life Technologies) and 1% Penicillin-Streptomycin (Life Technologies) in a standard incubator at 37° C. with 5% CO2. […] After 24-hour incubation, the treated cells and untreated cells were fixed with 4% Paraformaldehyde (PFA) Solution in PBS (Boster biological technology AR1068) for 15 minutes for subsequent immunostaining
Cells cultured on nanopillar arrays were immunostained for lamin A or lamin B1. Cells were washed with pre-warmed PBS two times and fixed with 4% paraformaldehyde (PFA) in phosphate-buffered saline (PBS) (Boster biological technology AR1068) for 15 minutes. The cells were washed three times with PBS and then permeabilized with 0.5% Triton X-100 (Sigma) in PBS for 15 minutes. After washing with PBS for three times, samples were blocked using 5% bovine serum albumin (BSA) (Sigma) in PBS for 1 hour before staining with 1:400 anti-lamin A (Abcam ab26300) and anti-lamin B1 (gift from the Saggio lab in Sapienza University of Rome). Samples were washed three times with PBS and stained with the secondary antibody, Chicken anti-Rabbit IgG (H+L) Cross-Adsorbed Secondary Antibody, Alexa Fluor 488 (Invitrogen A21441), 1:500 in staining buffer for 1 hour under room temperature.
Imaging of the fluorescently labeled cells on nanopillar arrays was performed using laser scanning confocal microscopy (Zeiss LSM 800 with Airyscan). In particular, a Plan-Apochromat 100×/1.4 oil objective was used. During imaging, fixed cells were maintained in PBS. Z stack images were acquired with 500 nm distance between each frame.
Anisotropicity of nanopillar-guided subnuclear shape irregularities was measured on nanopillar arrays. Firstly, one image with the best signal-to-background ratio in the stack was selected for subsequent characterization. Square masks (2.75 μm*2.75 μm) centered by the individual nanopillars were manually drawn based on the brightfield channel. Features that were guided by individual nanopillars were cropped using the generated masks. Subsequently, binary images of the guided features were extracted based on the background intensity (2 times of lowest 10% intensity used as a threshold) in the cropped images. Then, the anisotropicity of the subnuclear shape irregularities was measured as coherency, an indicator for anisotropy property, using orientationJ (a plugin function in ImageJ).

[5] = tested on: MDA-MB-231 cells; assay: Wound healing assay (migration rate); details: MDA-MB-231, treatment for 24 h vs DMSO, p value=0.0363; FIG. 9e-f
Protocol: (§2) Cells were maintained in 35 mm dishes for each cell line until approximately 90% confluent. Scratch was made in the confluent monolayer of cells with a sterile […] pipette tip, and fresh culture medium was replaced. Brightfield microscopic pictures were taken of the same field at 24 hours. Migration rate was measured by quantifying the closure area within the same time frame using ImageJ.

[6] = tested on: MCF-7 cells; assay: Wound healing assay (migration rate); details: MCF-7, treatment for 24 h vs DMSO, p value=0.7440; FIG. 9e-f
Protocol: as §2

| SMILES | lamin A level (in words) [1] | fraction of cells with dominant isotropic ring features and low deformation coherency [2] | pillar coherency [2] | change in anisotropy (coherency) of induced nuclear deformation (in words) [3] | lowest concentration at which pillar coherency value and fraction of line-deformation cells responded ([4]; MDA-MB-231, DMSO, 1 μM and 10 μM tested, FIG. 14) [µM] | pillar coherency value ([4]; MDA-MB-231 on nanopillar arrays (500 nm diameter, 3 μm pitch), 24-hour treatment, DMSO control 0.4218±0.1305, FIG. 9c) | fraction of line-deformation cells ([4]; MDA-MB-231 on nanopillar arrays, 24-hour treatment, line = cell coherency >0.3, DMSO control 0.9333±0.1155, FIG. 9d) | change in nuclear deformation coherency / line deformation (in words) ([4]; MDA-MB-231 on nanopillar arrays, treated vs DMSO) | migration rate change (in words) [5] | migration speed change (in words) [6] |
| --- | --- | --- | --- | --- | --- | --- | --- | --- | --- | --- |
| COc1cccc2c1C(=O)c1c(O)c3c(c(O)c1C2=O)C[C@@](O)(C(=O)CO)C[C@@H]3O[C@H]1C[C@H](N)[C@H](O)[C@H](C)O1 [DOX, doxorubicin] | significantly high lamin A level | 0.607±0.152 | 0.3057±0.1862 |  |  |  |  |  |  |  |
| COc1cc([C@@H]2c3cc4c(cc3[C@@H](O[C@@H]3O[C@@H]5CO[C@@H](C)O[C@H]5[C@H](O)[C@H]3O)[C@H]3COC(=O)[C@H]23)OCO4)cc(OC)c1O [Etop, etoposide] | significantly high lamin A level | 0.772±0.079 | 0.2606±0.1564 |  |  |  |  |  |  |  |
| COc1cc(/C=C/C(=O)CC(=O)/C=C/c2ccc(O)c(OC)c2)ccc1O [curcumin] |  |  |  | no significant coherency changes; also recorded: No significant change | 1 | 0.2426±0.1570 | 0.2646±0.2695 | significant decreases in nuclear deformation coherency; also recorded: significantly less line deformation | lower migration rate | do not show significant changes in migration speed |
